Read-outs that look alike come from different tables or passages of the source.
What was measured:
cancer cell lines = experiment: Standard Cytotoxicity Assay for other cancer cell types (TC50, CellTiter-Glo); type: cell-based
Procedure: Approximately 24 hours later, test compound was added from serial dilutions prepared in DMSO from DMSO stock solutions.

[1] = Maximum tolerated dose in mice; conditions: nu/nu, mouse, in vivo, oral

For `O=C(NCc1cccnc1)Nc1ccc(COc2ccccc2-c2ccccc2)cc1` [Exemplary Compound A, 1-{4-[(biphenyl-2-yloxy)methyl]phenyl}-3-(pyridin-3-ylmethyl)urea], the CC50 (cancer cell lines; Homo sapiens, MIA PaCa-2, 168 h, MIA PaCa-2 (pancreatic), 7 DAY, read-out: TC50 (the source's name)) was 0.4 nM, the CC50 (cancer cell lines; Homo sapiens, MIA PaCa-2, 168 h, MiaPaCa2 cells (pancreas), 7 day, read-out: Cmpd A 7 day TC50) was 0.4 nM and the CC50 (cancer cell lines; Homo sapiens, MM1.S, 72 h, MM.1S cells (myeloma), 3 day, read-out: Cmpd A 3 day TC50) was 1.2 nM. For the same compound, the CC50 (cancer cell lines; Homo sapiens, Malme-3M, 72 h, MALME-3M cells (melanoma (lung metastasis)), 3 day, read-out: Cmpd A 3 day TC50) was 2.5 nM, the CC50 (cancer cell lines; Homo sapiens, NB-4, 72 h, NB-4 cells (myelogenous leukemia), 3 day, read-out: Cmpd A 3 day TC50) was under 0.8 nM and the CC50 (cancer cell lines; Homo sapiens, NCI-H69, 72 h, NCI-H69 (SCLC), 3 DAY, read-out: TC50 (the source's name)) was 1 nM. For the same compound, the CC50 (cancer cell lines; Homo sapiens, NCI-H69, 72 h, NCI-H69 cells (lung (small cell)), 3 day, read-out: Cmpd A 3 day TC50) was 1 nM, the CC50 (cancer cell lines; Homo sapiens, NCI-H82, 72 h, NCI-H82 (SCLC), 3 DAY, read-out: TC50 (the source's name)) was 1.1 nM and the CC50 (cancer cell lines; Homo sapiens, NCI-H226, 72 h, NCI-H226 cells (lung (NSCLC)), 3 day, read-out: Cmpd A 3 day TC50) was 62 nM. The CC50 (cancer cell lines; Homo sapiens, NCI-H460, 72 h, NCI-H460 (NSCLC), 3 DAY, read-out: TC50 (the source's name)) was 15.4 nM, the CC50 (cancer cell lines; Homo sapiens, NCI-H460, 72 h, NCI-H460 cells (lung (NSCLC)), 3 day, n = 9, read-out: Cmpd A 3 day TC50) was 26 nM and the CC50 (cancer cell lines; Homo sapiens, NCI-H460, 168 h, NCI-H460 cells (lung (NSCLC)), 7 day, n = 8, read-out: Cmpd A 7 day TC50) was 17 nM. The CC50 (cancer cell lines; Homo sapiens, NCI-H522, 72 h, NCI-H522 (NSCLC), 3 DAY, read-out: TC50 (the source's name)) was 1 nM, the CC50 (cancer cell lines; Homo sapiens, NCI-H522, 168 h, NCI-H522 (NSCLC), 7 DAY, read-out: TC50 (the source's name)) was 0.4 nM and the CC50 (cancer cell lines; Homo sapiens, NCI-H522, 168 h, NCI-H522 cells (lung (NSCLC)), 7 day, read-out: Cmpd A 7 day TC50) was 0.4 nM. For the same compound, the CC50 (cancer cell lines; Homo sapiens, NCI-H929, 72 h, NCI-H929 (myeloma), 3 DAY, read-out: TC50 (the source's name)) was 2.5 nM, the CC50 (cancer cell lines; Homo sapiens, NCI-H1299, 72 h, NCI-H1299 cells (lung (NSCLC)), 3 day, read-out: Cmpd A 3 day TC50) was 4 nM and the CC50 (cancer cell lines; Homo sapiens, NCI-H1650, 72 h, NCI-H1650 (NSCLC), 3 DAY, read-out: TC50 (the source's name)) was 2.5 nM. The CC50 (cancer cell lines; Homo sapiens, NCI-H1650, 72 h, NCI-H1650 cells (lung (NSCLC)), 3 day, read-out: Cmpd A 3 day TC50) was 1.5 nM, the CC50 (cancer cell lines; Homo sapiens, NCI-N87, 72 h, NCI-N87 (gastric), 3 DAY, read-out: TC50 (the source's name)) was 0.3 nM and the CC50 (cancer cell lines; Homo sapiens, NCI-N87, 72 h, NCI-N87 cells (gastric), 3 day, read-out: Cmpd A 3 day TC50) was 0.3 nM. It also gave a CC50 (cancer cell lines; Homo sapiens, NCI-N87, 168 h, NCI-N87 (gastric), 7 DAY, read-out: TC50 (the source's name)) of 0.2 nM, a CC50 (cancer cell lines; Homo sapiens, NCI-N87, 168 h, NCI-N87 cells (gastric), 7 day, read-out: Cmpd A 7 day TC50) of 0.2 nM and a CC50 (cancer cell lines; Homo sapiens, NOMO-1, 72 h, NOMO-1 cells (myelogenous leukemia), 3 day, read-out: Cmpd A 3 day TC50) of under 0.8 nM. For the same compound, the CC50 (cancer cell lines; Homo sapiens, OCI-LY19, 72 h, OCI-LY-19 cells (lymphoma), 3 day, read-out: Cmpd A 3 day TC50) was 1.1 nM, the CC50 (cancer cell lines; Homo sapiens, OCI-LY19, 72 h, OCI-Ly19 (lymphoma), 3 DAY, read-out: TC50 (the source's name)) was 1.2 nM and the CC50 (cancer cell lines; Homo sapiens, OPM-2, 72 h, OPM-2 (myeloma), 3 DAY, read-out: TC50 (the source's name)) was 1.5 nM. For the same compound, the CC50 (cancer cell lines; Homo sapiens, OVCAR-3, 72 h, OVCAR3 (ovarian), 3 DAY, read-out: TC50 (the source's name)) was 1.1 nM, the CC50 (cancer cell lines; Homo sapiens, OVCAR-3, 72 h, OVCAR-3 cells (ovary), 3 day, read-out: Cmpd A 3 day TC50) was 1.1 nM and the CC50 (cancer cell lines; Homo sapiens, OVCAR-3, 168 h, OVCAR3 (ovarian), 7 DAY, read-out: TC50 (the source's name)) was 0.4 nM. For the same compound, the CC50 (cancer cell lines; Homo sapiens, OVCAR-3, 168 h, OVCAR-3 cells (ovary), 7 day, read-out: Cmpd A 7 day TC50) was 0.4 nM, the CC50 (cancer cell lines; Homo sapiens, OVCAR-4, 72 h, OVCAR-4 cells (ovary), 3 day, read-out: Cmpd A 3 day TC50) was 2.8 nM and the CC50 (cancer cell lines; Homo sapiens, OVCAR-5, 72 h, OVCAR-5 cells (ovary), 3 day, read-out: Cmpd A 3 day TC50) was 1.5 nM. For the same compound, the CC50 (cancer cell lines; Homo sapiens, OVCAR-8, 72 h, OVCAR-8 cells (ovary), 3 day, read-out: Cmpd A 3 day TC50) was 0.5 nM, the CC50 (cancer cell lines; Homo sapiens, PC-3, 72 h, PC-3 cells (prostate), 3 day, read-out: Cmpd A 3 day TC50) was under 1.5 nM and the CC50 (cancer cell lines; Homo sapiens, PFSK-1, 72 h, PFSK-1 cells (brain; malignant neuroectodermal tumor), 3 day, read-out: Cmpd A 3 day TC50) was under 0.8 nM. It also gave a CC50 (cancer cell lines; Homo sapiens, RPMI-8226, 72 h, RPMI-8226 cells (myeloma), 3 day, read-out: Cmpd A 3 day TC50) of 6 nM, a CC50 (cancer cell lines; Homo sapiens, Ramos, 72 h, Ramos cells (lymphoma), 3 day, read-out: Cmpd A 3 day TC50) of 1.8 nM and a CC50 (cancer cell lines; Homo sapiens, SF-295, 72 h, SF-295 (glioma), 3 DAY, read-out: TC50 (the source's name)) of 1.5 nM. The CC50 (cancer cell lines; Homo sapiens, SK-BR-3, 72 h, SK-BR-3 cells (breast), 3 day, read-out: Cmpd A 3 day TC50) was 6.8 nM, the CC50 (cancer cell lines; Homo sapiens, SK-OV-3, 72 h, SK-OV-3 cells (ovary), 3 day, read-out: Cmpd A 3 day TC50) was 1.2 nM and the CC50 (cancer cell lines; Homo sapiens, SKM-1, 72 h, SKM-1 cells (myelogenous leukemia), 3 day, read-out: Cmpd A 3 day TC50) was under 0.8 nM. It also gave a CC50 (cancer cell lines; Homo sapiens, SR, 72 h, SR cells (lymphoma), 3 day, read-out: Cmpd A 3 day TC50) of 21 nM, a CC50 (cancer cell lines; Homo sapiens, SU-DHL10, 72 h, SU-DHL-10 cells (lymphoma), 3 day, read-out: Cmpd A 3 day TC50) of 0.75 nM and a CC50 (cancer cell lines; Homo sapiens, SU-DHL-1, 72 h, SU-DHL-1 cells (lymphoma), 3 day, read-out: Cmpd A 3 day TC50) of 37 nM. It also gave a CC50 (cancer cell lines; Homo sapiens, SU-DHL-4, 72 h, SU-DHL-4 (lymphoma), 3 DAY, read-out: TC50 (the source's name)) of 1.5 nM, a CC50 (cancer cell lines; Homo sapiens, SU-DHL-4, 72 h, SU-DHL-4 cells (lymphoma), 3 day, read-out: Cmpd A 3 day TC50) of 0.84 nM and a CC50 (cancer cell lines; Homo sapiens, SU-DHL-5, 72 h, SU-DHL-5 (lymphoma), 3 DAY, read-out: TC50 (the source's name)) of 0.9 nM. For the same compound, the CC50 (cancer cell lines; Homo sapiens, SU-DHL-5, 72 h, SU-DHL-5 cells (lymphoma), 3 day, read-out: Cmpd A 3 day TC50) was 0.57 nM, the CC50 (cancer cell lines; Homo sapiens, SU-DHL-8, 72 h, SU-DHL-8 cells (lymphoma), 3 day, read-out: Cmpd A 3 day TC50) was 0.59 nM and the CC50 (cancer cell lines; Homo sapiens, SU.86.86, 72 h, SU.86.86 cells (pancreas), 3 day, read-out: Cmpd A 3 day TC50) was 4.3 nM. It also gave a CC50 (cancer cell lines; Homo sapiens, SW48, 72 h, SW-48 cells (colon), 3 day, read-out: Cmpd A 3 day TC50) of 2.3 nM, a CC50 (cancer cell lines; Homo sapiens, SW480, 72 h, SW 480 cells (colon), 3 day, read-out: Cmpd A 3 day TC50) of 4 nM and a CC50 (cancer cell lines; Homo sapiens, T47D, 72 h, T47D cells (breast), 3 day, read-out: Cmpd A 3 day TC50) of 0.8 nM. It also gave a CC50 (cancer cell lines; Homo sapiens, T-24, 72 h, T24 cells (bladder), 3 day, read-out: Cmpd A 3 day TC50) of 1 nM, a CC50 (cancer cell lines; Homo sapiens, THP-1, 72 h, THP-1 cells (lymphocytic leukemia), 3 day, read-out: Cmpd A 3 day TC50) of under 0.8 nM and a CC50 (cancer cell lines; Homo sapiens, U2OS, 72 h, U-2 OS cells (osteosarcoma), 3 day, read-out: Cmpd A 3 day TC50) of 2.2 nM. It also gave a CC50 (cancer cell lines; Homo sapiens, U-87 MG, 72 h, U-87MG (glioma), 3 DAY, read-out: TC50 (the source's name)) of 23 nM, a CC50 (cancer cell lines; Homo sapiens, U-87 MG, 72 h, U-87 MG cells (brain; glioblastoma/astrocytoma), 3 day, read-out: Cmpd A 3 day TC50) of 15 nM and a CC50 (cancer cell lines; Homo sapiens, U-266, 72 h, U266 cells (myeloma), 3 day, read-out: Cmpd A 3 day TC50) of 18 nM. For the same compound, the CC50 (cancer cell lines; Homo sapiens, U-266, 168 h, U266 cells (myeloma), 7 day, read-out: Cmpd A 7 day TC50) was 1.5 nM, the CC50 (cancer cell lines; Homo sapiens, U-937, 72 h, U-937 cells (lymphoma), 3 day, read-out: Cmpd A 3 day TC50) was 1 nM and the CC50 (cancer cell lines; Homo sapiens, UACC-257, 72 h, UACC-257 cells (melanoma), 3 day, read-out: Cmpd A 3 day TC50) was 27 nM. It also gave a CC50 (cancer cell lines; Homo sapiens, VCaP, 72 h, VCaP cells (prostate), 3 day, n = 2, read-out: Cmpd A 3 day TC50) of over 10000 nM, a CC50 (cancer cell lines; Homo sapiens, VCaP, 168 h, VCaP cells (prostate), 7 day, read-out: Cmpd A 7 day TC50) of 14 nM and a CC50 (cancer cell lines; Hs766T, 72 h, Hs 766T cells (pancreas), 3 day, read-out: Cmpd A 3 day TC50) of 4.7 nM. It also gave a CC50 (cancer cell lines; L-82, 72 h, L-82 cells (lymphoma), 3 day, read-out: Cmpd A 3 day TC50) of 32 nM, a CC50 (cancer cell lines; MLE12, 72 h, MLE-12 cells (mouse; lung), 3 day, read-out: Cmpd A 3 day TC50) of 4 nM and a CC50 (cancer cell lines; MM.1R, 72 h, MM.1R cells (myeloma), 3 day, read-out: Cmpd A 3 day TC50) of 1.5 nM. The CC50 (cancer cell lines; Mus musculus, B16-F10, 72 h, B16-F10 cells (mouse; melanoma), 3 day, read-out: Cmpd A 3 day TC50) was 80 nM, the CC50 (cancer cell lines; Mus musculus, Hepa1-6, 72 h, Hepa1-6 cells (mouse; hepatoma), 3 day, read-out: Cmpd A 3 day TC50) was 2.5 nM and the CC50 (cancer cell lines; Mus musculus, RAW264.7, 72 h, RAW264.7 cells (mouse; leukemia), 3 day, read-out: Cmpd A 3 day TC50) was 14 nM. For the same compound, the CC50 (cancer cell lines; OVCAR-3 cells (ovary), 3 day, read-out: Cmpd A 3 day TC50) was under 0.8 nM, the CC50 (cancer cell lines; OVCAR-8 cells (ovary), 3 day, read-out: Cmpd A 3 day TC50) was under 0.8 nM and the CC50 (cancer cell lines; SR-786, 72 h, SR-786 cells (lymphoma), 3 day, read-out: Cmpd A 3 day TC50) was 1.1 nM. It also gave a CC50 (cancer cell lines; SU-DHL-10 cells (lymphoma), 3 day, read-out: Cmpd A 3 day TC50) of 0.83 nM, a CC50 (cancer cell lines; SUP-M2, 72 h, SUP-M2 cells (lymphoma), 3 day, read-out: Cmpd A 3 day TC50) of 2.2 nM and a CC50 (cancer cell lines; T47D cells (breast), 3 day, read-out: Cmpd A 3 day TC50) of under 1.5 nM. For the same compound, the CC50 (cancer cell lines; U266 cells (myeloma), 3 day, read-out: Cmpd A 3 day TC50) was 10.3 nM, the CC50 (cancer cell lines; U-937 cells (lymphoma), 3 day, read-out: Cmpd A 3 day TC50) was 0.89 nM and the CC50 (cancer cell lines; UWB1289, 72 h, UWB1.289 cells (ovary), 3 day, read-out: Cmpd A 3 day TC50) was 2.4 nM. The MTD [1] was 75 mg/kg.

Reference: patent US8912184B1, “Therapeutic and diagnostic methods” (Alzheimer's Institute of America, Inc., priority 2010, dated 2014)
